According to PMC9317670, “Temporal and Wash-Out Studies Identify Medicines for Malaria Venture Pathogen Box Compounds with Fast-Acting Activity against Both Trypanosoma cruzi and Trypanosoma brucei” (Microorganisms, 2022):
Where two headings read alike, the source gives them in different places.

Legend:
T.b. brucei [1] = assay: T.b. brucei temporal viability (time-kill) assay, 48 h, PrestoBlue; type: cell-based, Trypanosoma brucei brucei; settings: for Emax: read-out: Emax 48 h T.b. brucei (converted); for IC50: read-out: IC50 48 h T.b. brucei
T.b. brucei [2] = assay: T.b. brucei temporal viability (time-kill) assay, 24 h, PrestoBlue; type: cell-based, Trypanosoma brucei brucei; settings: for Emax: read-out: Emax 24 h T.b. brucei (converted); for IC50: read-out: IC50 24 h T.b. brucei
Description: Time-kill assays was undertaken as previously described, using the REDOX reagent PrestoBlue® [24]. […] Control compounds were added at the same concentrations at outlined for the resazurin-based assays.

HEK293 cells = assay: HEK293 cytotoxicity assay; type: cell-based, human; settings: HEK293, 72 h, NA = not active, highest dose 79 µM unless given
T. cruzi and T.b. brucei = assay: Speed of action and cidality classification from temporal and wash off assays; type: cell-based, Trypanosoma cruzi, Trypanosoma brucei brucei; settings: for Speed of Action (FA/SA): TC = T. cruzi, TBB = T.b. brucei
[3] = system: T.b. brucei bloodstream 427 strain parasites; assay: T.b. brucei 72 h REDOX-based (resazurin) viability assay; type: cell-based, Trypanosoma brucei brucei; settings: for Emax / IC50 / Emax % (T.b. brucei): 72 h; for SI (T.b. brucei) HEK: selectivity index in relation to HEK293 cells
[4] = system: T. cruzi Tulahuen strain parasites in 3T3 host cells; assay: T. cruzi 48 h image-based assay; type: cell-based, Trypanosoma cruzi; settings: for IC50: read-out: IC50 (T. cruzi); for SI (T. cruzi) 3T3: selectivity index in relation to 3T3 host cells, highest dose 3T3 73 µM; for SI (T. cruzi) HEK: selectivity index in relation to HEK293 cells
T. cruzi [5] = assay: T. cruzi compound wash off assay (48 h with compound, wash off, 72 h without); type: cell-based, Trypanosoma cruzi; settings: T. cruzi; for IC50: read-out: IC50 Wash Off; for Fold Change of IC50, wash off vs 48 h: IC50 from 48 h incubation to IC50 following wash off and further 72 h
T. cruzi [6] = assay: T. cruzi temporal image-based assay, 24 h exposure; type: cell-based, Trypanosoma cruzi; settings: Trypanosoma cruzi
[7] = 48 h incubation, wash off, further 72 h
[8] = selectivity index in relation to HEPG2 cells
[9] = Trypanosoma cruzi, 48 h incubation, wash off, further 72 h

| Fold Change of IC50, wash off vs 48 h (T. cruzi [5]) | SMILES | Emax (T.b. brucei [1]; Trypanosoma brucei) | IC50 (T.b. brucei [1]; Trypanosoma brucei) | Emax (T.b. brucei [2]; Trypanosoma brucei) | IC50 (T.b. brucei [2]; Trypanosoma brucei) | IC50 HEK (HEK293 cells) | Speed of Action (FA/SA) (T. cruzi and T.b. brucei) | Emax ([3]; Trypanosoma brucei) | IC50 ([3]; Trypanosoma brucei) | SI (T.b. brucei) HEK [3] | Emax % (T. cruzi) ([4]; 48 h) | IC50 ([4]; 48 h) | SI (T. cruzi) 3T3 [4] | SI (T. cruzi) HEK [4] | IC50 (HEK293 cells) | Emax % (T.b. brucei) [3] | IC50 [3] | other results |
| --- | --- | --- | --- | --- | --- | --- | --- | --- | --- | --- | --- | --- | --- | --- | --- | --- | --- | --- |
| – | C[C@@H]1[C@H](O)[C@@H](C)/C=C/C=C/C=C/C=C/C=C/C=C/C=C/[C@H](O[C@@H]2O[C@H](C)[C@@H](O)[C@H](N)[C@@H]2O)C[C@@H]2O[C@](O)(C[C@@H](O)C[C@@H](O)[C@H](O)CC[C@@H](O)C[C@@H](O)CC(=O)O[C@H]1C)C[C@H](O)[C@H]2C(=O)O [Amphotericin B, reference compound] | 100% | 260 ± 1.6 nM | 100% | 880 ± 163 nM | NA at 4.0 µM (NT) | FA (Fast-acting (FA) = IC50 value can be determined following 24 h incubation, <10-fold difference in the IC50 value from 24 to 72 h) | 100% | 1500 ± 88 nM | >2.6 | – | – | – | – | – | – | – | – |
| – | N=C(N)c1ccc(/N=N/Nc2ccc(C(=N)N)cc2)cc1 [Diminazene aceturate, reference compound] | 100% | 70 ± 27 nM | 99% | 210 ± 58 nM | NA at 38 µM (NT) | FA (Fast-acting (FA) = IC50 value can be determined following 24 h incubation, <10-fold difference in the IC50 value from 24 to 72 h) | 100% | 37 ± 0.41 nM | >1027 | – | – | – | – | – | – | – | – |
| – | CN1CCC(NCc2cccc(-c3ccc(S(=O)(=O)NCc4ccccc4)cc3)c2)CC1 [MMV 22029] | – | – | – | – | – | – | – | – | 5.6 | 100% | 8200 ± 690 nM | 1.2 | 1.0 (NT) | 8100 ± 54 nM | 99% | 1500 ± 59 nM | SI (T. cruzi) HEK ([4]; listed as MMV022029): < 10; SI (T.b. brucei) HEK ([3]; listed as MMV022029): < 10 |
| – | O=C(Nc1ccc(N2CCNCC2)cc1)c1ccn2ncc(-c3cccc(Cl)c3)c2n1 [MMV 22478] | – | – | – | – | – | – | – | – | 8.0 | 100% | 5900 ± 1300 nM | 1.04 | 2.03 (NT) | 12000 ± 390 nM | 98% | 1500 ± 180 nM | SI (T. cruzi) HEK ([4]; listed as MMV022478): < 10; SI (T.b. brucei) HEK ([3]; listed as MMV022478): < 10 |
| 1.2 fold | OCCc1ccc(Nc2nccc(-c3nnc4ccccn34)n2)cc1 [MMV 028694] | – | – | – | – | – | SA (TC) | – | – | 12 | 98% | 9400 ± 1800 nM | >7.8 | 1.0 (NT) | 9700 ± 50 nM | 100% | 830 ± 57 nM | Emax % (T. cruzi) ([4]; 48 h, listed as MMV028694): > 95%; SI (T. cruzi) 3T3 ([4]; listed as MMV028694): > 7.8; SI (T. cruzi) HEK ([4]; listed as MMV028694): 1; Emax 48 h T.b. brucei (T.b. brucei [1]): 100%; IC50 (T.b. brucei [1]): 710 ± 130 nM; Emax 24 h T.b. brucei (T.b. brucei [2]): 87%; IC50 (T.b. brucei [2]): 700 ± 190 nM; Emax Wash Off (T. cruzi [5]; [7]): 98%; IC50 (T. cruzi [5]; [7]): 12000 ± 1800 nM |
| 3.4 fold | O=C(Nc1ccc2c(c1)B(O)OC2)c1ccccc1C(F)(F)F [MMV 652003] | 100% | 110 ± 12 nM | 100% | 450 ± 67 nM | – | FA (Fast-acting (FA) = IC50 value can be determined following 24 h incubation, <10-fold difference in the IC50 value from 24 to 72 h) | 100% | 92 ± 2.7 nM | 74 | – | – | >487 | 45 | – | – | – | Emax ([4]; Trypanosoma cruzi, TULAHUEN, 48 h, read-out: Emax % (T. cruzi) (converted)): 100%; IC50 ([4]; Trypanosoma cruzi, TULAHUEN, 48 h): 150 ± 4 nM; SI (T. cruzi) (HEP) [4, 8]: > 548; IC50 (HEK293 cells; Homo sapiens): 6800 ± 204 nM; Emax (T. cruzi [5]; [9]): 99%; IC50 (T. cruzi [5]; [9]): 510 ± 80 nM; Speed of Action (Table 5) (T. cruzi and T.b. brucei; prioritised compounds, Fast/Slow): Fast; SI (T.b. brucei) (HEP) [3, 8]: > 862; Emax (T. cruzi [6]): 93%; IC50 (T. cruzi [6]; NA = not active at given concentration, read-out: IC50 24 h T. cruzi): 1280 ± 560 nM |
